Experimental data as given in patent US9850283B2, “Macrocyclic inhibitors of the PD-1/PD-L1 and CD80(B7-1)/PD-L1 protein/protein interactions” (BRISTOL-MYERS SQUIBB COMPANY, priority 2013, dated 2017).
Read-outs that look alike come from different tables or passages of the source. Starred links: 1 amine or outer side, 2 acyl side, 3 side chain; linkers in the order of their positions; H or OH if unused. Positions of bridges follow the written chain, without caps; N, C: chain ends. Non-standard residues stand in square brackets, D forms with d. Residues, ends and D or L forms follow the SMILES beside them. ξ: configuration not given here. *: point of attachment. Trp(2-Ph) = N[C@@H](Cc1c(-c2ccccc2)[nH]c2ccccc12)C(=O)O; ξPro(4S-NH2) = O=C(C1C[C@H](N[*:3])CN1[*:1])[*:2]; Phe(3-CF3) = N[C@@H](Cc1cccc(C(F)(F)F)c1)C(=O)O; Phe(3,4-F2) = N[C@@H](Cc1ccc(F)c(F)c1)C(=O)O; X1 = C[C@@H]1C[C@H](C(=O)[*:2])N([*:1])C1; NMeW = CN[C@@H](Cc1c[nH]c2ccccc12)C(=O)O; Phe(3-OMe) = COc1cccc(C[C@H](N)C(=O)O)c1; Hyp = O=C(O)[C@@H]1C[C@@H](O)CN1; NMeF = CN[C@@H](Cc1ccccc1)C(=O)O; ξBta = NC(Cc1csc2ccccc12)C(=O)O; dNMeNle = CCCC[C@@H](NC)C(=O)O; NMeNle = CCCC[C@H](NC)C(=O)O; ξR = N=C(N)NCCCC(N)C(=O)O; NMeA = CN[C@@H](C)C(=O)O; Orn = NCCC[C@H](N)C(=O)O; dDap = NC[C@@H](N)C(=O)O; Dab = NCC[C@H](N)C(=O)O; Dap = NC[C@H](N)C(=O)O; ξP = O=C(O)C1CCCN1; Bn = c1ccc(C*)cc1; ξC = NC(CS)C(=O)O; Sar = CNCC(=O)O

What was measured:
[1] = target: T1, LK35.2-hPD-L1 cells / PE-labeled PD-1-Ig (Homo sapiens, UniProt Q9NZQ7); assay: LK35.2-hPD-L1 cell binding high-content screening assay; type: cell-based; conditions: cluster symbol, read-out: CBA IC50 cluster
T1 construct: expressed in transfected cells; host or cells: LK35.2 mouse B cell line
T1 sequence (Q9NZQ7 19-290): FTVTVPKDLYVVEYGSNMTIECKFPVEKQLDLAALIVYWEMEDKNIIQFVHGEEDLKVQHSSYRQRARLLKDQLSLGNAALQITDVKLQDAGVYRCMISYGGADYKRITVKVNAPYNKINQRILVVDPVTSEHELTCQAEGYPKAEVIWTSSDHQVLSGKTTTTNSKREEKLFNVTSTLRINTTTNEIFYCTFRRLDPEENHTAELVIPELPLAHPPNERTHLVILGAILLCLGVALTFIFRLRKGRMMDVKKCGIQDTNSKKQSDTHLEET
How it was run: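 Using overnight-cultured LK35.2-hPD-L1 mouse B cells, compound was co-incubated with phycoerythrin-tagged human PD-1-Ig (final 1 nM) at 37 °C for one hour. Unbound label was removed by triple dPBS washing prior to high-content image acquisition and analysis.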

Human PD-L1/PD-1 = target: T2, Human PD-L1/PD-1 (Homo sapiens, UniProt Q9NZQ7); assay: HTRF PD-1-Ig/PD-L1-His binding assay (human PD-L1); conditions: cluster symbol; read-out: HTRF IC50 cluster
T2 construct: made in house; host or cells: HEK293T
T2 sequence (Q9NZQ7 with tags, fused parts or gaps): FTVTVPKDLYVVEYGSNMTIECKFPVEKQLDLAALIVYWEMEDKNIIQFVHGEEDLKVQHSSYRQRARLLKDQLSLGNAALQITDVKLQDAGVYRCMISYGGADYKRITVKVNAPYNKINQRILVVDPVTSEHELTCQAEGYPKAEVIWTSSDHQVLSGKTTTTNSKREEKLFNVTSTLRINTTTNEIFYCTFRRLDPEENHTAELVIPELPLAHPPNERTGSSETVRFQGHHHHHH
How it was run: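 Interaction of Fc-tagged soluble PD-1 with His-tagged soluble PD-L1 is monitored by time-resolved FRET. Donor is europium cryptate anti-Ig (1 nM final) and acceptor is APC anti-His (20 nM final). Assay buffer is dPBS with 0.1% BSA and 0.05% Tween-20.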

[2] = cell line of CBA not given (LK35.2-hPD-L1 or 293T-hPD-L1)
[3] = cell binding assay, cell line not given

Row | IC50 [1, 2] [nM] | IC50 (Human PD-L1/PD-1) [nM] | IC50 [1, 3] [nM] | Structure (SMILES)
1 | > 74.3 | > 30.5 | – | CCCC[C@H]1C(=O)N(C)[C@@H](CCCC)C(=O)N[C@@H](CCCNC(=N)N)C(=O)N[C@H](C(=O)NCC(N)=O)CSCC(=O)N[C@@H](Cc2cccc(C(F)(F)F)c2)C(=O)N(C)[C@@H](C)C(=O)N[C@@H](CC(N)=O)C(=O)N2CCC[C@H]2C(=O)N[C@@H](Cc2cnc[nH]2)C(=O)N[C@@H](CC(C)C)C(=O)N(C)CC(=O)N[C@@H](Cc2c[nH]c3ccccc23)C(=O)N[C@@H](CO)C(=O)N[C@@H](Cc2c[nH]c3ccccc23)C(=O)N1C [Example 1107] ({CH2CO}-[Phe(3-CF3)][NMeA]NPHL[Sar]WSW[NMeNle][NMeNle]RCG-NH2; thioether N-14)
2 | – | > 30.5 | > 74.3 | CCCC[C@H]1C(=O)N(C)CC(=O)N[C@@H](CC(=O)O)C(=O)N[C@@H](C(C)C)C(=O)N(C)[C@@H](Cc2ccccc2)C(=O)N[C@@H](Cc2ccc(O)cc2)C(=O)N(C)CC(=O)N[C@@H](Cc2c[nH]c3ccccc23)C(=O)N[C@@H](Cc2c[nH]c3ccccc23)C(=O)N[C@@H](CC(C)C)C(=O)N[C@H](C(=O)NCC(N)=O)CSCC(=O)N[C@@H](Cc2ccccc2)C(=O)N(C)[C@@H](Cc2ccccc2)C(=O)N1C [Example 3539] (HELM PEPTIDE1{[O=C(C[*:3])[*:2]].F.[meF].[CCCC[C@@H](C(=O)[*:2])N(C)[*:1]].[Sar].D.V.[meF].Y.[Sar].W.W.L.C.G.[am]}$PEPTIDE1,PEPTIDE1,1:R3-14:R3$$$V2.0)
3 | – | > 30.5 | > 74.3 | CCCC[C@H]1C(=O)N(C)[C@@H](CCCC)C(=O)N[C@@H](Cc2cnc[nH]2)C(=O)N[C@H](C(=O)NCC(N)=O)CSCC(=O)N[C@@H](Cc2ccccc2)C(=O)N(C)[C@@H](C)C(=O)N[C@@H](CC(N)=O)C(=O)N2CCC[C@H]2C(=O)N[C@@H](Cc2cnc[nH]2)C(=O)N[C@@H](CC(C)C)C(=O)N(C)CC(=O)N[C@@H](Cc2c[nH]c3ccccc23)C(=O)N[C@@H](CO)C(=O)N[C@@H](Cc2c[nH]c3ccccc23)C(=O)N1C [Example 5013] ({CH2CO}-F[NMeA]NPHL[Sar]WSW[NMeNle][NMeNle]HCG-NH2; thioether N-14)
4 | > 74.3 | > 30.5 | – | CCCC[C@H]1C(=O)N[C@@H](CCCNC(=N)N)C(=O)N[C@H](C(=O)NCC(N)=O)CSCC(=O)N[C@@H](Cc2ccccc2)C(=O)N(C)[C@@H](C)C(=O)N[C@@H](CC(N)=O)C(=O)N2CCC[C@H]2C(=O)N[C@@H](Cc2cnc[nH]2)C(=O)N[C@@H](CC(C)C)C(=O)N(C)CC(=O)N[C@@H](Cc2c[nH]c3ccccc23)C(=O)N[C@@H](CO)C(=O)N(C)[C@@H](Cc2c[nH]c3ccccc23)C(=O)N(C)[C@@H](CCCC)C(=O)N1C [Example 1031] ({CH2CO}-F[NMeA]NPHL[Sar]WS[NMeW][NMeNle][NMeNle]RCG-NH2; thioether N-14)
5 | – | 0.385 to 6.74 | 0.158 to 4.71 | CCCC[C@H]1C(=O)N2C[C@H](C)C[C@@H]2C(=O)N[C@@H](CC(=O)O)C(=O)N[C@@H](C(C)C)C(=O)N(C)[C@@H](Cc2ccccc2)C(=O)N[C@@H](Cc2ccc(O)cc2)C(=O)N(C)CC(=O)N[C@@H](Cc2c[nH]c3ccccc23)C(=O)N[C@@H](Cc2ccc(O)cc2)C(=O)N[C@@H](CC(C)C)C(=O)N[C@H](C(=O)NCC(N)=O)CSCC(=O)N[C@@H](Cc2ccccc2)C(=O)N(C)[C@@H](Cc2ccccc2)C(=O)N1C [Example 3580] ({CH2CO}-F[NMeF][NMeNle][X1]DV[NMeF]Y[Sar]WYLCG-NH2; thioether N-13)
6 | – | 0.385 to 6.74 | 0.158 to 4.71 | CCCC[C@H]1C(=O)N(C)[C@@H](CCCC)C(=O)NC(CCCNC(=N)N)C(=O)N[C@H](C(=O)NCC(N)=O)CSCC(=O)N[C@@H](Cc2ccc(O)cc2)C(=O)N(C)[C@@H](C)C(=O)N[C@@H](CC(N)=O)C(=O)N2CCC[C@H]2C(=O)N[C@@H](Cc2cnc[nH]2)C(=O)N[C@@H](CC(C)C)C(=O)N2CCC[C@H]2C(=O)N[C@@H](Cc2c[nH]c3ccccc23)C(=O)N[C@@H](CO)C(=O)N[C@@H](Cc2c(-c3ccccc3)[nH]c3ccccc23)C(=O)N1C (stereo partly shown) [Example 7001] ({CH2CO}-Y[NMeA]NPHLPWS[Trp(2-Ph)][NMeNle][NMeNle][ξR]CG-NH2; thioether N-14)
7 | 4.78 to 72.9 | 6.76 to 30.3 | – | CCCC[C@H]1C(=O)N(C)[C@@H](CCCC)C(=O)N[C@@H](C)C(=O)N[C@H](C(=O)NCC(N)=O)CSCC(=O)N[C@@H](Cc2ccc(O)cc2)C(=O)N(C)[C@@H](C)C(=O)N[C@@H](CCC(=O)O)C(=O)N2CCC[C@H]2C(=O)N[C@@H](Cc2cnc[nH]2)C(=O)N[C@@H](CC(C)C)C(=O)N2C[C@H](O)C[C@H]2C(=O)N[C@@H](Cc2c[nH]c3ccccc23)C(=O)N[C@@H](CO)C(=O)N[C@@H](Cc2c[nH]c3ccccc23)C(=O)N1C [Example 1169]
8 | – | 0.385 to 6.74 | 0.158 to 4.71 | CCCC[C@H]1C(=O)N(C)[C@@H](CCCC)C(=O)N[C@@H](CC(C)C)C(=O)N[C@H](C(=O)NCC(N)=O)CSCC(=O)N[C@@H](Cc2ccc(O)cc2)C(=O)N(C)[C@@H](C)C(=O)N[C@@H](CC(N)=O)C(=O)N2CCC[C@H]2C(=O)N[C@@H](Cc2c[nH]cn2)C(=O)N[C@@H](CCCCN)C(=O)N2C[C@H](O)C[C@H]2C(=O)N[C@@H](Cc2c[nH]c3ccccc23)C(=O)N[C@@H](CCCCN)C(=O)N[C@@H](Cc2c[nH]c3ccccc23)C(=O)N1C [Example 5089] ({CH2CO}-Y[NMeA]NPHK[Hyp]WKW[NMeNle][NMeNle]LCG-NH2; thioether N-14)
9 | 4.78 to 72.9 | 6.76 to 30.3 | – | CCCC[C@@H]1C(=O)N(C)[C@H](CCCC)C(=O)N[C@@H](CN)C(=O)N[C@@H](C(=O)NCC(N)=O)CSCC(=O)N[C@@H](Cc2ccc(O)cc2)C(=O)N2CCCC2C(=O)N[C@H](CC(=O)O)C(=O)N2CCC[C@H]2C(=O)N[C@H](CN)C(=O)N[C@@H](CCC(N)=O)C(=O)N2CCCC2C(=O)N[C@H](Cc2c[nH]c3ccccc23)C(=O)N[C@@H](CCN)C(=O)N[C@@H](Cc2c[nH]c3ccccc23)C(=O)N1C (stereo partly shown) [Example 1213] ({CH2CO}-Y[ξP][dD]P[dDap]Q[ξP][dW][Dab]W[dNMeNle][dNMeNle][Dap][dC]G-NH2; thioether N-14)
10 | 4.78 to 72.9 | 6.76 to 30.3 | – | CCCC[C@H]1C(=O)N(C)[C@@H](CCCC)C(=O)N[C@@H](CCCNC(=N)N)C(=O)N[C@H](C(=O)NCC(N)=O)CSCC(=O)N[C@@H](Cc2ccc(O)cc2)C(=O)N(C)[C@@H](C)C(=O)N[C@@H](CC(N)=O)C(=O)N2C[C@@H](N)CC2C(=O)N[C@@H](Cc2cnc[nH]2)C(=O)N[C@@H](CC(C)C)C(=O)N2CCC[C@H]2C(=O)N[C@@H](Cc2c[nH]c3ccccc23)C(=O)N[C@@H](CO)C(=O)NC(Cc2csc3ccccc23)C(=O)N1C (stereo partly drawn) [Example 1046] ({CH2CO}-Y[NMeA]N[ξPro(4S-NH2)]HLPWS[ξBta][NMeNle][NMeNle]RCG-NH2; thioether N-14)
11 | 4.78 to 72.9 | 6.76 to 30.3 | – | CCCC[C@H]1C(=O)N(C)CC(=O)N[C@@H](CC(=O)O)C(=O)N[C@@H](C(C)C)C(=O)N(C)[C@@H](Cc2ccccc2)C(=O)N[C@@H](Cc2ccc(O)cc2)C(=O)N(C)CC(=O)N[C@@H](Cc2c[nH]c3ccccc23)C(=O)N[C@@H](Cc2ccc(O)cc2)C(=O)N[C@@H](CC(C)C)C(=O)N[C@H](C(=O)NCC(N)=O)CSCC(=O)N[C@@H](Cc2cccc(OC)c2)C(=O)N(C)[C@@H](Cc2ccccc2)C(=O)N1C [Example 3095] ({CH2CO}-[Phe(3-OMe)][NMeF][NMeNle][Sar]DV[NMeF]Y[Sar]WYLCG-NH2; thioether N-13)
12 | 0.158 to 4.71 | 6.76 to 30.3 | – | CCCC[C@H]1C(=O)N(C)CC(=O)N[C@@H](CC(=O)O)C(=O)N[C@@H](C(C)C)C(=O)N(C)[C@@H](Cc2ccccc2)C(=O)N[C@@H](Cc2ccc(O)cc2)C(=O)N(C)CC(=O)N[C@@H](Cc2c[nH]c3ccccc23)C(=O)N[C@@H](Cc2ccc(O)cc2)C(=O)N[C@@H](CC(C)C)C(=O)N[C@H](C(=O)NCC(N)=O)CSCC(=O)N[C@@H](Cc2ccc(F)c(F)c2)C(=O)N(C)[C@@H](Cc2ccccc2)C(=O)N1C [Example 3130] ({CH2CO}-[Phe(3,4-F2)][NMeF][NMeNle][Sar]DV[NMeF]Y[Sar]WYLCG-NH2; thioether N-13)
13 | – | 0.385 to 6.74 | 0.158 to 4.71 | CCCC[C@H]1C(=O)N(C)[C@@H](CCCC)C(=O)N[C@@H](CCCNC(=N)N)C(=O)NC(C(=O)NCC(N)=O)CSCC(=O)N[C@@H](Cc2ccc(O)cc2)C(=O)N(C)[C@@H](C)C(=O)N[C@@H](CC(N)=O)C(=O)N2CCC[C@H]2C(=O)N[C@@H](CO)C(=O)N[C@@H](CC(C)C)C(=O)N2C[C@H](O)C[C@H]2C(=O)N[C@@H](Cc2c[nH]c3ccccc23)C(=O)N[C@@H](CO)C(=O)N[C@@H](Cc2c[nH]c3ccccc23)C(=O)N1C (stereo partly shown) [Example 9074] ({CH2CO}-Y[NMeA]NPSL[Hyp]WSW[NMeNle][NMeNle]R[ξC]G-NH2; thioether N-14)
14 | – | 0.385 to 6.74 | 0.158 to 4.71 | CCCC[C@H]1C(=O)N(C)[C@@H](CCCC)C(=O)N[C@@H](CCCN)C(=O)N[C@H](C(=O)NCC(N)=O)CSCC(=O)N[C@@H](Cc2ccc(O)cc2)C(=O)N(C)[C@@H](C)C(=O)N[C@@H](CC(N)=O)C(=O)N2CCC[C@H]2C(=O)N[C@@H](CN)C(=O)N[C@@H](CC(C)C)C(=O)N2C[C@H](OCc3ccccc3)C[C@H]2C(=O)N[C@@H](Cc2c[nH]c3ccccc23)C(=O)N[C@@H](CO)C(=O)N[C@@H](Cc2c[nH]c3ccccc23)C(=O)N1C [Example 14003] ({CH2CO}-Y[NMeA]NP[Dap]L[Hyp](Bn)WSW[NMeNle][NMeNle][Orn]CG-NH2; thioether N-14)
